# Measurements taken from US6251868A, “Method for treating a human immunodeficiency virus infection” (Teijin Limited, priority 1998, dated 2001).
# “Also recorded” adds a separate entry of the source.
# What was measured:
# [1] = test system: H-9/IIIB cells (H-9 cells infected with HIV-1IIIB); experiment: Viability and growth of chronically HIV-1-infected H-9/IIIB cells (trypan-blue exclusion); format: cell-based, human
# Experimental: The uninfected human T-lymphoid cell-line, H-9, or H-9 cells infected with an HIV-1 strain, HIV-1IIIB (H-9/IIIB) (Science 1984; 224:497-500), were seeded in 24 or 96 well tissue culture plates at a density of 2-2.5×10^5 /ml and maintained in RPMI-1640 tissue culture medium supplemented with 10% fetal bovine serum (FBS), with or without a variety of concentrations of γ-GCE, GSH, or NAC. Every two or three days, 50-80% of cell suspensions were removed, and the same amount of fresh medium, with the same concentrations of the compound to be analyzed were added for further incubation. At the same time-points, viable cells were counted for calculating the relative cell growth value, by the trypan-blue exclusion method. At the same time, cell viability was also monitored as the percentage of viable cells in the total cell population. […]
# [2] = test system: uninfected human T-lymphoid cell-line, H-9; experiment: Viability and growth of uninfected H-9 cells (trypan-blue exclusion); format: cell-based; settings: for cell viability (percentage of viable cells): through 6 days of incubation
# Experimental: Every two or three days, 50-80% of cell suspensions were removed, and the same amount of fresh medium, with the same concentrations of the compound to be analyzed were added for further incubation. At the same time-points, viable cells were counted for calculating the relative cell growth value, by the trypan-blue exclusion method. At the same time, cell viability was also monitored as the percentage of viable cells in the total cell population.
# [3] = test system: HIV-1 production of H-9/IIIB cells; experiment: HIV-1 p24 antigen production from H-9/IIIB cells at 1.25 or 2.5 mM (ELISA); format: cell-based, HIV-1 (HIV-1IIIB); settings: for HIV-1 production (p24 antigen) from H-9/IIIB cells: days two and four; for production of HIV-1 from chronically infected cells: high doses, up to a concentration of 2.5 mM
# Experimental: H-9/IIIB cells were washed thoroughly with phosphate-buffered saline (PBS) and resuspended at a density of 1×10^5 /ml in RPMI-1640/10% FBS with or without 1.25 or 2.5 mM of γ-GCE, GSH, or NAC. Since H-9/IIIB cells are constantly producing a large quantity of virus particles, stimulation with factors such as TNF-α or PMA were not required for carrying out these experiments. After two and four days, culture supernatant was removed, centrifuged to remove cells and debris, and evaluated by HIV-1 p24 antigen quantification. Measurement of the HIV-1 p24 antigen was performed by a sensitive enzyme-linked immunosorbant assay (ELISA) (DuPont).
# [4] = test system: HIV-1 virus stock (NL4-3); experiment: Direct inactivation of HIV-1 by pre-incubation, then acute infection of H9 cells; format: cell-based, HIV-1 (NL4-3); settings: for infectivity of HIV-1 after pre-incubation: 4 hours at 37° C., no viral production 15 days post-infection
# Experimental: An HIV-1 virus stock (NL4-3) containing 6 ng of HIV-1 p24 antigen was pre-incubated in the presence or absence of γ-GCE in 20 ml of RPMI-1640/10% FBS for 4 hr at 37° C. Afterwards, acute infection of H9 cells were carried out, using […] of each pretreated virus suspension into 1 ml of the cell suspension without γ-GCE, as described in the previous subsection. Sampling and maintenance of cell culture were also performed, following the same procedure as described in the previous subsection, without adding any γ-GCE through passage.
# [5] = test system: HIV-1 production of H-9/IIIB cells; experiment: HIV-1 p24 antigen production from H-9/IIIB cells at low, non-toxic doses; format: cell-based, HIV-1 (HIV-1IIIB); settings: for HIV-1 production (p24 antigen) of H-9/IIIB cells: days three and six
# Experimental: H-9/IIIB cells were washed with PBS and seeded at a density of 2×10^5 /ml in RPMI-1640/10% FBS with or without 0.2or 0.4 mM of γ-GCE. Three and six days after initiation of experiments, culture supernatants were sampled and assayed, as described above. On day three, 72% of each cell suspension was removed, and fresh medium with a corresponding GSH pro-drug was added. Total HIV-1 p24 antigen production values on day six were deduced by multiplying raw values, on day six, with the dilution factor on day three.
# [6] = test system: HIV-1 strain NL-4-3 in H-9 cells; experiment: Acute HIV-1 infection of H-9 cells; format: cell-based, HIV-1 (NL4-3)
# Experimental: Virus stocks of the HIV-1NL4-3strain were prepared and titered as described previously (Hum Gene Ther 1995; 6: 1561-1571). H-9 cells (3×10^5cells.) were suspended in 1 ml of growth medium with or without γ-GCE at a variety of concentrations, and seeded in a chamber of a 24-well tissue culture plate. Virus suspension containing 30 pg of HIV-1 p24 antigen was added to each chamber, for the initial infection. Infection was carried out overnight at 37° C., then the cells were washed once with PBS, and once more with growth medium. The supernatant of the final wash was saved as a day 0 time-point. Washed cells were resuspended with corresponding media for further incubation at 37° C. Once in three days, cell suspensions and supernatants were harvested for cell counting and HIV-1 p24 antigen quantification. Measurement of cell growth, viability, and virus production were performed as described in a previous subsection. On the days of harvest, 200 μl of cell suspension was left in each well, and 800 μl of fresh medium with corresponding concentrations of γ-GCE was added to support cell growth, except day 18, on which 400 μl of cell suspension was left and 600 μl of medium was added to each well. Cell numbers at each time-point were determined accordingly, based on the accumulation of dilution factors along with the frequency of passage.
# [7] = some decrease in relative cell growth, minimal decrease in viability after 6 days
compound,measurement,setting,value
"CCOC(=O)[C@H](CS)NC(=O)CC[C@H](N)C(=O)O [γ-GCE, γ-L-glutamyl-L-cysteine ethyl ester]",discrepancy of the thresholds of the toxic doses between infected and uninfected cells,[1],more than ten-fold
same,cell viability of H-9/IIIB cells,[1]; 200 μM and 400 μM (either dose),> 86%
same,cell growth of H-9/IIIB cells,[1]; 400 μM,Slower cell growth
same,cell growth of H-9/IIIB cells,[1]; 800 μM,dramatically impairs growth; also recorded: dramatically impaired
same,cell growth of H-9/IIIB cells,"[1]; 800 μM, after 12 days of treatment",no significant cell growth
same,sensitivity of H-9/IIIB cells to γ-GCE relative to uninfected cells (selective toxicity),"[1]; 5 mM on H-9 vs 400 μM on H-9/IIIB, equivalent cytotoxic profiles",approximately 12.5 times
same,cell growth relative to control,"[1]; H-9/IIIB, 800 μM, day six",less than 40 % of the control
same,concentration giving equivalent cytotoxic profile on H-9/IIIB cells,[1]; [7],~400 µM
same,effect on cell viability and growth of uninfected H-9 cells,[2]; 2.5 mM,unaffected; also recorded: no negative effects on cell viability and growth
same,concentration giving equivalent cytotoxic profile on H-9 cells,[2]; [7],~5000 µM
same,cell viability (percentage of viable cells),"[2]; uninfected H-9 cells, 2.5 mM",≥ 90%
same,HIV-1 production (p24 antigen) from H-9/IIIB cells,[3]; 1.25 mM,almost completely shut-off
same,HIV-1 production (p24 antigen) from H-9/IIIB cells,[3]; 2.5 mM,almost completely shut-off
same,production of HIV-1 from chronically infected cells,[3],potently inhibits the production of HIV-1
same,propagation of HIV-1 in H-9 cells after pre-incubation of virus,"[4]; 625 μM, 4 hours",only some delay of the onset
same,infectivity of HIV-1 after pre-incubation,[4]; 1.25 mM,completely inactivates; also recorded: loss of infectivity
same,infectivity of HIV-1 after pre-incubation,[4]; 2.5 mM,completely inactivates; also recorded: loss of infectivity
same,time in which infectivity of HIV-1 is directly inhibited,[4]; relatively high doses,within four hours
same,viral infectivity after pre-incubation,"[4]; same concentrations (625 μM-2.5 mM), one hour, data not illustrated",did not show significant interference
same,HIV-1 production (p24 antigen) of H-9/IIIB cells,[5]; 200 μM,significantly inhibited
same,HIV-1 production (p24 antigen) of H-9/IIIB cells,[5]; 400 μM,significantly inhibited
same,viral production from chronically HIV1-expressing cells,"[5]; lower concentrations (200-400 μM), viability not affected",significantly represses
same,propagation of HIV-1 (total HIV-1 p24 antigen),"[6]; 1.6 mM, 21 days postinfection",completely blocked
same,syncytia-formation,"[6]; 1.6 mM, data not illustrated",not significantly observed
same,growth and viability of HIV-1-inoculated H-9 cells,"[6]; 1.6 mM, entire experiments","continued to grow actively, maintaining high viability"
same,acute infection (total HIV-1 p24 antigen),[6]; 400-800 μM,not inhibited significantly
same,propagation of HIV-1 in acute infection of T-lymphocytic cells,[6]; relatively high doses,entirely blocked
"CC(=O)N[C@@H](CS)C(=O)O [NAC, N-acetylcysteine]",effect on cell viability and growth of uninfected H-9 cells,[2]; 2.5 mM,no negative effects on growth
same,"cell viability, lowest value","[2]; uninfected H-9 cells, 2.5 mM, Day 4",91.75±0.45%
same,cell viability (percentage of viable cells),"[2]; uninfected H-9 cells, 2.5 mM",≥ 90%
same,HIV-1 production (p24 antigen) from H-9/IIIB cells,[3]; 1.25 mM,neither GSH (triangles) nor NAC (rectangles) can overwhelm the vigorous HIV-1 production; also recorded: Neither GSH nor NAC could overwhelm the vigorous HIV-1 production; also recorded: did not alter viral expression
same,HIV-1 production (p24 antigen) from H-9/IIIB cells,[3]; 2.5 mM,increased the virus production
"N[C@@H](CCC(=O)N[C@@H](CS)C(=O)NCC(=O)O)C(=O)O [GSH, glutathione]",effect on cell viability and growth of uninfected H-9 cells,[2]; 2.5 mM,no negative effects on growth
same,cell viability (percentage of viable cells),"[2]; uninfected H-9 cells, 2.5 mM",≥ 90%
same,HIV-1 production (p24 antigen) from H-9/IIIB cells,[3]; 1.25 mM,neither GSH (triangles) nor NAC (rectangles) can overwhelm the vigorous HIV-1 production; also recorded: Neither GSH nor NAC could overwhelm the vigorous HIV-1 production; also recorded: did not alter viral expression
same,HIV-1 production (p24 antigen) from H-9/IIIB cells,[3]; 2.5 mM,increased the virus production
same,production of HIV-1 from chronically infected cells,[3],neither GSH nor other GSH precursors show inhibitory effects
